{"source": "patent US20070128727A1", "about": "“Methods for differentiation of embryonic stem cells” (priority 2005, published 2007)", "assay_type_in_all_cases": "cell-based, mouse", "key": {"MESC": {"tested_on": "MESC", "experiment": "ATRA effects on growth of MESC (Alamar blue cell proliferation)", "settings": "ATRA 10^-6 M for three days, vs 0.1% DMSO vehicle, 500 cells/well", "procedure": "(§1) Mouse embryonic stem (ES) cells were used as the source of embryoid bodies (EBs). E14Tg2A cells were trypsinized and made into suspension in Glasgow Minimum essential medium containing 10% fetal bovine serum (growth medium). Cells were counted under a microscope using a haemocytometer, and were diluted to a concentration on 10^5 cells/mi. During cell passages, 1000 U/ml of leukemia inhibitory factor (LIF) was added to prevent differentiation.\nFIG. 1. ATRA effects on growth of MESC. Cells were plated at 500/well in a 96-well culture plate. Starting on day 1, they were treated with ATRA (10^−6 M) for three days with replacement of fresh media each day. Control samples were treated with 0.1% DMSO (vehicle). At each indicated day, Alamar blue (10 μl/0.1 ml), an indicator for cell proliferation detection, was added to each well and the fluorescence generated was read after 4 hours."}, "[1]": {"tested_on": "embryoid bodies from E14Tg2A embryonic stem cells", "experiment": "Differentiation of adipocytes from embryoid bodies (oil-red-O staining, morphology)", "settings": "ATRA treated vs vehicle treated cultures, same differentiation process", "procedure": "as §1\nTo make EBs, cell suspensions after trypsinization were made into hanging droplets (20 μl) onto the cover of a bacteriological petri dish. The bottom of the dish was filled with PBS.\n20 μl droplets of cells in suspension were pipetted onto the cover of a 100 mm bacteriological petri dish. […]\nTwo days afterwards, the droplets containing EBs were collected by adding medium to the cover and equally distributed onto 2 gelatinized (precoated with 0.1% gelatin) 100 mm petri dishes. […] After treating the cells for 8 days, cells were removed from the dish, counted with a hemocytometer and plated onto gelatinized 6-well culture plates at 10^4/cm^2. […]\nATRA treated cultures and vehicle treated control cultures underwent the same differentiation process as described in the Methods. […] The relative mass of specific RNA was calculated by the comparative cycle of threshold detection method according to the manufacturer's instruction. […]"}, "Differentiated MESC": {"tested_on": "Differentiated MESC", "experiment": "Gene expression profile by Taqman real time PCR in differentiated MESC", "procedure": "Two days afterwards, the droplets containing EBs were collected by adding medium to the cover and equally distributed onto 2 gelatinized (precoated with 0.1% gelatin) 100 mm petri dishes. The attached EBs were treated with 10^−6 M ATRA (all-trans retinoic acid) for 3 days to initiate differentiation. Medium was then changed into growth medium with 10^−7 M insulin and 2×10^−9 M of triiodothyronine (T3) (induction medium) to continue adipocyte differentiation. Medium was changed every two days. At day 10, further stimulation of induction was made by the addition of an induction cocktail [0.5 mM isobutylmethylxanthine (IBMX), 0.1 μM dexamethasone (DEX) and 1 μM of insulin]. After treating the cells for 8 days, cells were removed from the dish, counted with a hemocytometer and plated onto gelatinized 6-well culture plates at 10^4/cm^2. Cells with minute lipid droplets (adipocytes) appeared in two days. The number of the adipocytes and the size of droplets increased over time and reached a plateau at day 10.\nATRA treated cultures and vehicle treated control cultures underwent the same differentiation process as described in the Methods. […] Total RNA was extracted, and reverse-transcribed. The relative mass of specific RNA was calculated by the comparative cycle of threshold detection method according to the manufacturer's instruction. Two independent experiments were performed using different RNA preparations from the cultures; each run of PCR was conducted in triplicate. The expression of adipocyte markers was increased while some of the osteoblast markers were decreased."}, "[2]": {"tested_on": "embryoid body cultures from E14Tg2A cells", "experiment": "Osteoblast differentiation, real time RT-PCR of osteoblast marker mRNA", "settings": "day 31 cultures", "procedure": "Two days afterwards, the droplets containing EBs were collected by adding medium to the cover and equally distributed onto 2 gelatinized (precoated with 0.1% gelatin) 100 mm petri dishes. Without treating with ATRA, the attached EBs were incubated in the induction medium containing 10^−7 M insulin and 2×10^−9 M T3 for 5 days.\nAfter that, 0.3 mM of ascorbic acid phosphate (magnesium salt, Waco Chemicals, Dallas, Tex.) and 10 mM of β-glycerophosphate (Sigma-Aldrich Chemicals, St. Louis, Mo.) were added to the induction medium for an additional 9 days. At day 14, cultures were trypsinized to remove the cells and plated on to gelatin-coated 6-well culture plates at a density of 10^4 cells/cm^2. Three days after, at day 17, DEX at 10^−8 M was added to some of the wells to further induce osteoblast differentiation. Medium was replaced every 2 days throughout the culture period.\nThe cultures were terminated 2 weeks after at day 31 and stained for alkaline phosphatase (ALP) activity using a kit from Sigma following manufacturer's procedure (procedure No. 85). In this procedure, cells containing ALP activity, an osteoblast maker, appear in blue color. […]"}, "[3]": {"tested_on": "fully differentiated and induced cells (adipocytes from MESC)", "experiment": "Hormone induced lipolysis (glycerol release into medium)", "settings": "4 hr in glucose-free DMEM; isoproterenol increasing concentrations; dibutyryl-cAMP 10^-3 M; forskolin 4×10^-5 M", "procedure": "FIG. 4. Hormone induced lipolysis. Fully differentiated and induced cells were treated with increasing concentrations of isoproterenol in glucose-free DMEM containing 30 mg/ml of fatty acid free albumin and adenosine deaminase (1 U/ml) for 4 hr. The control samples were incubated with 10^−5 M N-(2-phenylisopropyl)-adenosine to replace the endogenous adenosine. The amount of glycerol in the medium was measured using a calorimetric kit. Differentiated and induced cells incubated with isoproterenol in 35 mm wells. B. Differentiated cells with or without induction cultures were incubated with 10^−3 M dibutyryl-cAMP or 4×10^−5 M forskolin in 60 mm diameter culture plates."}}}
{"compound": "CC1=C(/C=C/C(C)=C/C=C/C(C)=C/C(=O)O)C(C)(C)CCC1", "note": "[ATRA, all-trans retinoic acid]", "values": [{"measurement": "cell number (Alamar blue fluorescence)", "setting": "MESC", "value": "significant lowering of the cell number was only seen at day 3"}, {"measurement": "formation of adipocytes at end of culture", "setting": "[1]", "value": "formed numerous fully differentiated adipocytes"}, {"measurement": "ALBP expression, Fold Change (ATRA/Control)", "setting": "Differentiated MESC; adipocyte marker", "value": "+53.2 ± 0.09 fold"}, {"measurement": "HSL expression, Fold Change (ATRA/Control)", "setting": "Differentiated MESC; adipocyte marker", "value": "+2.39 ± 0.17 fold"}, {"measurement": "PPAR-γ expression, Fold Change (ATRA/Control)", "setting": "Differentiated MESC; adipocyte marker", "value": "+1.72 ± 0.42 fold"}, {"measurement": "ALP expression, Fold Change (ATRA/Control)", "setting": "Differentiated MESC; osteoblast marker", "value": "−2.54 ± 0.03", "unit": "fold"}, {"measurement": "Collagen type 1α expression, Fold Change (ATRA/Control)", "setting": "Differentiated MESC; osteoblast marker", "value": "+6.27 ± 0.26 fold"}, {"measurement": "Osteocalcin expression, Fold Change (ATRA/Control)", "setting": "Differentiated MESC; osteoblast marker", "value": "−5.28 ± 0.05", "unit": "fold"}, {"measurement": "Osteonectin expression, Fold Change (ATRA/Control)", "setting": "Differentiated MESC; osteoblast marker", "value": "+2.02 ± 0.25 fold"}]}
{"compound": "C[C@@H]1C[C@H]2[C@@H]3CCC4=CC(=O)C=C[C@]4(C)[C@@]3(F)[C@@H](O)C[C@]2(C)[C@@]1(O)C(=O)CO", "note": "[DEX, dexamethasone]", "values": [{"measurement": "increase in expression of ALP mRNA", "setting": "[2]", "value": "~2", "unit": "fold"}, {"measurement": "increase in expression of osteocalcin mRNA", "setting": "[2]", "value": 8, "unit": "fold"}]}
{"compound": "CCCC(=O)Nc1ncnc2c1ncn2[C@@H]1O[C@@H]2COP(=O)(O)O[C@H]2[C@H]1OC(=O)CCC", "note": "[dibutyryl-cAMP]", "values": [{"measurement": "glycerol release (lipolysis)", "setting": "[3]", "value": "dose-dependent increase of glycerol release"}]}
{"compound": "CC(C)NCC(O)c1ccc(O)c(O)c1", "note": "(stereo not shown) [isoproterenol]", "values": [{"measurement": "glycerol release (lipolysis)", "setting": "[3]", "value": "dose-dependent increase of glycerol release"}]}
